Measured values reported in US20200245667A1, “OLIGOSACCHARIDE COMPOSITIONS AND THEIR USE DURING TRANSITIONAL PHASES OF THE MAMMALIAN GUT MICROBIOME” (EVOLVE BIOSYSTEMS, INC., priority 2017, published 2020).

Key:
L. reuteri = conditions: Rattanaprasert et al. 2014; cited from earlier work
B. longum = assay: free sugar consumption by intestinal microbiota; format: cell-based; design: key: *: predicted, but not observed; ND: Not Determined; conditions: predicted, but not observed
Text: (§1) A number of bacterial species are provided in Table 2, since the inventors have discovered preferred carbon source(s) for certain bacteria. Certain embodiments of the invention described herein would include one or more of any of the species found in Table 2.

B. breve = assay: free sugar consumption by intestinal microbiota; format: cell-based; design: key: *: predicted, but not observed; ND: Not Determined; conditions: predicted, but not observed
Text: as §1

B. bifidum = assay: free sugar consumption by intestinal microbiota; format: cell-based; design: key: *: predicted, but not observed; ND: Not Determined; conditions: predicted, but not observed
Text: as §1

B. infantis = assay: free sugar consumption by intestinal microbiota; format: cell-based; design: key: *: predicted, but not observed; ND: Not Determined; conditions: predicted, but not observed
Text: as §1

Row | SMILES | growth of Lactobacillus reuteri on the sugar (L. reuteri) | preferences for free sugar consumption (B. longum) | preferences for free sugar consumption (B. breve) | preferences for free sugar consumption (B. bifidum) | preferences for free sugar consumption (B. infantis)
1 | O=C[C@@H](O)[C@H](O)[C@H](O)CO [Arabinose] | known to grow on arabinose |  |  |  | 
2 | C[C@H](O)[C@@H](O)[C@@H](O)[C@H](O)C=O [Fucose] |  | * | * | * | *
3 | C[C@H](O)[C@H](O)[C@@H](O)[C@@H](O)C=O [Rhamnose] | utilize rhamnose as a terminal electron acceptor to improve its growth |  |  |  | 
